The values below come from patent US6852750B2, “Benzenedicarboxylic acid derivatives” (Guilford Pharmaceuticals, Inc., priority 2000, dated 2005).

Usually EC50 stands for the concentration that produces a half-maximal response.

The subject of one assay is cortical cell cultures. Description: In vitro assay on ischemia (cortical cell cultures, potassium cyanide and 2-deoxyglucose). In kind it is cell-based. As to conditions: 1 h, read-out: EC50 (neuroprotective effect). The protocol:
In Vitro Assay on Ischemia
To examine the in vitro effect of the compounds of formula I on ischemia, cortical cell cultures were treated with various compounds of formula I during an ischemic insult utilizing potassium cyanide and 2-deoxyglucose, and for one hour thereafter (for experimental details, see Vomov et al., J. Neurochem., Vol. 65, No. 4, pp. 1681-1691 (1995)).

Assay [1] concerns STZ-induced diabetic rats. Description: In vivo assay on neuropathic pain, STZ-diabetic rats (Hargreaves thermal nociception). Particulars: 10 mg/kg i.p. daily, FIGS. 13A and 13B. Set-up: species or system Sprague-Dawley rats. As to the method:
In Vivo Assay of NAALADase Inhibitors on Neuropathic Pain
Male Sprague-Dawley rats (200-225 g) were rendered diabetic by intravenous administration of streptozotocin (“STZ”, 70 mg/kg in phosphate buffered saline). Diabetic animals were divided into five groups: one group receiving Compound A (10 mg/kg or 1 mg/kg), Compound D (10 mg/kg or 1 mg/kg) or vehicle. Another group of animals (non-STZ treated) served as non-diabetic controls. Drug/vehicle treatment was started in diabetic animals 45 days post-STZ administration. STZ-induced diabetic rats were tested for sensitivity to a heat source as soon as blood glucose levels rose to 320 mg/dl or above (30 days post STZ). The rats were then acclimated to the Hargreaves apparatus and thermal nociception was monitored using an infrared heat source directed into the dorsal surface of the hindpaw, and the time taken for the animal to remove its paw noted to the nearest 0.1 seconds (for detailed method, see Hargreaves et al., J. Biol. Chem. (1988) 263(36):19392-7). The intensity of the beam source was adjusted such that the mean latency for control animals (non-STZ treated) was approximately 10 seconds. Each animal was tested 8 times and the mean difference score (between mean non-diabetic control latency and mean diabetic latency) are graphically presented in FIGS. 13A and 13B.

Assay [2] has as its system BB/W diabetic rats. Description: Withdrawal latency in BB/W diabetic rats (Hargreaves). In kind it is in vivo. Particulars: 10 mg/kg i.p. daily, vs diabetic vehicle-treated rats, from 4 weeks through six months, FIG. 17. The text has this: (§1) Male BB/W rats (BRI, Mass) spontaneously develop a cell mediated autoimmune destruction of pancreatic B cells, resulting in onset of insulin-dependent (Type I) diabetes (Awata and Guberski et al., Endocrinology 1995 December; 136(12):5731-5). […] This renders them valuable for experimental trials of new compounds for future treatments of this major disorder. In the present study, Compound D and Compound A were examined for their ability to alter the progression of diabetic neuropathy. The rats received daily injection of Compound D or Compound A (10 mg/kg i.p.) or vehicle, starting at the onset of diabetes (hyperglycemia) and up to 6 months thereafter. Another group of non-diabetic rats also receiving vehicle were tested. All animals were continuously monitored for body weight, urine volume, blood sugar and glycated haemoglobin. In the first month of the study, all animals were tested for thermal nociception in a Hargreaves apparatus, weekly. After the first month this was done biweekly and then monthly. The testing consists of directing an infrared heat source onto the dorsal surface of the rat hindpaw and noting the time taken for the animal to remove its paw (for detailed method, see Hargreaves et al., J. Biol. Chem. 1988 Dec. 25; 263(36):19392-7). Each animal was tested 8 times and the mean withdrawal latency noted.

Assay [3] has as its system BB/W diabetic rats. Description: Nerve conduction velocity in BB/W diabetic rats. In kind it is in vivo. Particulars: 10 mg/kg daily, vs diabetic vehicle controls, from 8 weeks to six months, FIG. 18.
Description: as §1, with “The testing consists of directing an infrared heat source onto the dorsal surface of the rat hindpaw and noting the time taken for the animal to remove its paw (for detailed method, see Hargreaves et al., J. Biol. Chem. 1988 Dec. 25; 263(36):19392-7). Each animal was tested 8 times and the mean withdrawal latency noted.” left out
Nerve conduction velocity was also measured every two weeks through the first eight weeks of treatment and every month thereafter through to the six months of treatment. […]

A further assay has as its system STZ-diabetic rats. Briefly: In vivo assay on diabetic neuropathy: motor and sensory nerve conduction velocity in STZ-diabetic rats. As to conditions: vs diabetic controls; for sensory nerve conduction velocity / motor nerve conduction velocity: 10 mg/kg daily; for sensory nerve conduction velocity: significant after 8 weeks (Compound A) or 12 weeks (Compound D); for motor nerve conduction velocity: significant after 12 weeks. As to the method:
In Vivo Assay of NAALADase Inhibitors on Diabetic Neuropathy
Motor and sensory nerve conduction velocity was also measured in STZ-diabetic animals after 4, 8 and 12 weeks of treatment. For detailed method, see De Koning et al., Peptides 1987 May-Jun. 1987; 8(3):415-22. Briefly, stimulating needle electrodes were inserted close to the sciatic and tibial nerves with recording electrodes being placed subcutaneously over the distal foot muscles, in anesthetized rats.

Assay [4] relates to TGF-β1. Description: Effect on TGF-β1 in in vitro ischemia model. Particulars: ischemic cell cultures, FIG. 1. Type of assay: cell-based. The protocol: (§2) Effect of NAALADase Inhibition on TGF-β in In Vitro Ischemia Model
(§3) A NAALADase inhibitor, Compound C, was added to ischemia cell cultures to determine its effect on TGF-β levels during stroke. The experimental data, set forth

For another assay, the system named is TGF-β2. Description: Effect on TGF-β2 in in vitro ischemia model. As to conditions: ischemic cell cultures, FIG. 2. Type of assay: cell-based. As to the method: as §2, §3
For another assay, the system named is ischemic cell cultures. Description: Neuroprotective effect in ischemic cell cultures with neutralizing antibodies. Type of assay: cell-based. Particulars: in vitro ischemia model. The protocol: TGF-β neutralizing antibodies were then added to the ischemic cell cultures.
Assay [5] has as its system TGF-β1. Description: TGF-β1 levels in rats subjected to MCAO (microdialysis). In kind it is in vivo. As to conditions: FIG. 6.
Assay [6] has as its system rats subjected to middle cerebral artery occlusion. Description: Neuroprotective effect in MCAO rats with TGF-β neutralizing antibodies. In kind it is in vivo. Particulars: FIG. 5. An excerpt:
The effect of TGF-β neutralizing antibodies on the neuroprotective effect of Compound C was also studied in rats following MCAO.
One of ordinary skill in the art can appreciate that the regulation of TGF-β's by NAALADase inhibitors may have implications not only in stroke, but also in other diseases, disorders and conditions including, without limitation, neurological diseases, psychiatric diseases, demyelinating diseases, prostate cancer, inflammation, and angiogenesis.

Assay [7] has as its system chronic constrictive injury-induced rats. Description: Neuropathic pain progression, CCI model (sciatic nerve ligation, Hargreaves). In kind it is in vivo. As to conditions: 50 mg/kg i.p. daily starting 10 days post surgery, vs vehicle, significant from 11 days of treatment, FIG. 14. As to the method: In Vivo Assay of NAALADase Inhibitors on Neuropathic Pain Progression CCI Model
Sciatic nerve ligation, consisting of 4 ligatures tied loosely around the sciatic nerve at 1 mm intervals proximal to the nerve trifurcation, was performed on rats. […] The rats were habituated to a Hargreaves apparatus. An infrared heat source was directed onto the dorsal surface of each rat's hindpaws and the time taken for the rat to withdraw its paws was noted. The difference in scores between the latency of the response for the paw on the operated side versus the paw on the unoperated control side was determined.
Animals received Compound C (50 mg/kg i.p. daily) or vehicle, starting 10 days post surgery. […] Normal (unoperated) rats had approximately equal latencies for both paws. This effect was significant starting at 11 days of drug treatment and persisted through to the end of the study (for 21 days of daily dosing).

`O=C(O)c1ccc(OCCCSSCCCOc2ccc(C(=O)O)cc2C(=O)O)c(C(=O)O)c1` [Compound 19, 4-[3-[[3-(2,4-dicarboxyphenoxy)propyl]-dithio]propoxy]-1,3-benzenedicarboxylic acid]: the EC50 in the assay with cortical cell cultures is 2490 nM.

With `O=C(O)c1ccc(CCS)c(C(=O)O)c1` [Compound 22, 4-(2-mercaptoethyl)-1,3-benzenedicarboxylic acid], the EC50 in the assay with cortical cell cultures worked out at 60 nM.

`O=C(O)c1cc(OCCCS)cc(C(=O)O)c1` [Compound 36, 5-(3-mercaptopropoxy)-1,3-benzenedicarboxylic acid]: in the assay on cortical cell cultures, the EC50 came out at 1240 nM.

`O=C(O)c1cc(C(=O)O)cc(C(=O)NO)c1` [Compound 39, 5-[(hydroxyamino)-carbonyl]-1,3-benzenedicarboxylic acid]: the EC50 in the assay with cortical cell cultures was 473 nM.

On to `O=C(O)c1cc(CS)cc(C(=O)O)c1` [Compound 41, 5-mercaptomethyl-1,3-benzenedicarboxylic acid], for which the concentration for a half-maximal effect (EC50) in the assay on cortical cell cultures is 172 nM.

As to `O=C(O)CCC(CP(=O)(O)Cc1c(F)c(F)c(F)c(F)c1F)C(=O)O` (centres unmarked) [Compound A, 2-[[(2,3,4,5,6-pentafluorobenzyl)hydroxyphosphinyl]methyl]pentanedioic acid], in assay [1], the “hyperalgesic response (withdrawal latency difference score)” value is on record as “completely reversed”. Further, the withdrawal latency entry in the assay with BB/W diabetic rats [2] is “longer withdrawal latencies”. Moreover, the nerve conduction velocity result with BB/W diabetic rats [3] is reported as “significantly less severe nerve conduction deficits”. In addition, in the assay with STZ-diabetic rats, the “sensory nerve conduction velocity” value is “significant improvement” and the “motor nerve conduction velocity” value is “significant improvement”.

Consider `O=C(O)CCC(CP(=O)(O)O)C(=O)O` (centres unmarked) [Compound C, 2-(phosphonomethyl)pentanedioic acid], for which the TGF-β1 concentrations entry in the assay on TGF-β1 [4] is “increased concentrations”. In addition, the TGF-β2 concentrations result in the assay with TGF-β2 was “increased concentrations”. Also, the “neuroprotective effect with TGF-β neutralizing antibodies added” value in the assay with ischemic cell cultures (FIG. 3) is recorded as “blocked”. The “neuroprotective effect with FGF antibody added” value with ischemic cell cultures (FIG. 4) is “did not block”. Moreover, the “TGF-β1 levels during occlusion and reperfusion” value in the assay with TGF-β1 [5] is reported as “significant rise”. Also, the “neuroprotective effect in vivo with TGF-β neutralizing antibodies” value in assay [6] is “significantly attenuated”. In addition, the “difference scores between the two paws (withdrawal latency)” value in [7] is recorded as “dramatically normalized”.

On to `O=C(O)CCC(CCS)C(=O)O` (centres unmarked) [Compound D, 2-(2-sulfanylethyl)pentanedioic acid], for which, in [1], the “hyperalgesic response (withdrawal latency difference score)” value is “completely reversed”. In addition, in the assay with BB/W diabetic rats [2], the withdrawal latency entry is reported as “longer withdrawal latencies”. In addition, the nerve conduction velocity result in the assay with BB/W diabetic rats [3] is given as “significantly less severe nerve conduction deficits”. In the assay with STZ-diabetic rats (1 mg/kg dose), the “motor and sensory nerve conduction velocities” value was “increased”. Also, in the assay with STZ-diabetic rats, the “sensory nerve conduction velocity” value is “increased” and the “motor nerve conduction velocity” value was “increased”.
